Assay [1] is described as follows: Antioxidant activity assessed as suppression ratio of hydroxyl radical formation at 2 uM after 30 mins by absorbance analysis. The assay is classed as functional.
The subject of assay [2] is Escherichia coli. The experiment in a line: Induction of Escherichia coli supercoiled pBR322 DNA cleavage assessed as increase in open circular form measured after UV irradiation by agarose gel electrophoresis analysis.
Assay [3] has as its system Calf thymus DNA. The experiment in a line: Binding affinity to calf thymus DNA assessed as intercalation by measuring viscosity by viscometer analysis. The assay is classed as nucleic-acid assay. The settings on record: Bos taurus.
A short description of assay [4]: Antioxidant activity assessed as suppression ratio of hydroxyl radical formation at 3 uM after 30 mins by absorbance analysis. The format is functional.
The nature of assay [5]: Antioxidant activity assessed as suppression ratio of hydroxyl radical formation at 3.5 uM after 30 mins by absorbance analysis. The format is functional.
The nature of assay [6]: Antioxidant activity assessed as suppression of hydroxyl radical formation after 30 mins by absorbance analysis. The assay is classed as functional.
A short description of assay [7]: Antioxidant activity assessed as suppression ratio of hydroxyl radical formation at 1.5 uM after 30 mins by absorbance analysis. The format is functional.
Assay [8] has as its system Calf thymus DNA. The experiment in a line: Binding affinity to calf thymus DNA assessed as luminescence intensity at compound to DNA ratio of 1:1 by job plot analysis. The assay is classed as nucleic-acid assay. The settings on record: Bos taurus.
A short description of assay [9]: Antitumor activity against human SKBR3 cells assessed as growth inhibition after 48 hrs by MTT assay. The format is functional, cell-based. The settings on record: SK-BR-3, 48 h. On the technique in general: Tetrazolium dyes change colour on reduction, which living cells bring about.
The nature of assay [10]: Antioxidant activity assessed as suppression ratio of hydroxyl radical formation at 1 uM after 30 mins by absorbance analysis. The format is functional.
A short description of assay [11]: Antioxidant activity assessed as suppression ratio of hydroxyl radical formation at 0.5 uM after 30 mins by absorbance analysis. The format is functional.
Assay [12] can be described thus: Antitumor activity against human Bel7402 cells assessed as growth inhibition after 48 hrs by MTT assay. The assay is classed as functional, cell-based. The conditions noted are these: Bel-7402, 48 h.
Assay [13] relates to Escherichia coli. The experiment in a line: Induction of Escherichia coli supercoiled pBR322 DNA cleavage assessed as decrease in intact supercoiled form measured after UV irradiation by agarose gel electrophoresis analysis.
For assay [14], the system named is A549. The experiment in a line: Antitumor activity against human A549 cells assessed as growth inhibition after 48 hrs by MTT assay. The format is functional, cell-based. The conditions noted are these: A549, 48 h.
Assay [15] has as its system Calf thymus DNA. The experiment in a line: Binding affinity to calf thymus DNA assessed as hypochromicity at 231 nm at 40 uM after 5 mins by electronic absorption analysis. The assay is classed as nucleic-acid assay. The settings on record: Bos taurus.
Assay [16] has as its system Calf thymus DNA. The experiment in a line: Binding affinity to calf thymus DNA assessed as decrease in compound emission intensity at 705 nm at 20 uM by luminescence spectrometer analysis. The format is nucleic-acid assay. The conditions noted are these: Bos taurus.
For assay [17], the species on record is Bos taurus. Description: Intrinsic binding affinity to calf thymus DNA at 231 nm after 5 mins by electronic absorption analysis.
Assay [18] in a line: Antioxidant activity assessed as suppression ratio of hydroxyl radical formation at 2.5 uM after 30 mins by absorbance analysis. The assay is classed as functional.
The nature of assay [19]: Antitumor activity against human MG63 cells assessed as growth inhibition after 48 hrs by MTT assay. The assay is classed as functional, cell-based. The conditions noted are these: MG-63, 48 h.
Assay [20] has as its system Calf thymus DNA. Description: Binding affinity to calf thymus DNA assessed as decrease in compound emission intensity at 356 nm at 20 uM by luminescence spectrometer analysis. The format is nucleic-acid assay. The settings on record: Bos taurus.
For assay [21], the system named is Calf thymus DNA. The experiment in a line: Binding affinity to calf thymus DNA assessed as luminescence intensity at compound to DNA ratio of 1:2 by job plot analysis. The assay is classed as nucleic-acid assay. The settings on record: Bos taurus.
Assay [22] relates to A549. The experiment in a line: Induction of apoptosis in human A549 cells assessed as apoptotic cells at 25 uM after 24 hrs by flow cytometry (reference value: 0%). The format is functional. Background: Flow cytometry measures light scatter and fluorescence of single cells or particles in a stream.
The test system of assay [23] is A549. Description: Induction of apoptosis in human A549 cells assessed as necrotic cells at 25 uM after 24 hrs by flow cytometry (reference value: 0.04%). The assay is classed as functional.
For assay [24], the system named is Calf thymus DNA. Description: Binding affinity to calf thymus DNA assessed as increase in compound emission intensity at 446 nm at 20 uM by luminescence spectrometer analysis. The assay is classed as nucleic-acid assay. The settings on record: Bos taurus.
For assay [25], the system named is A549. Description: Induction of apoptosis in human A549 cells assessed as viable cells at 25 uM after 24 hrs by flow cytometry (reference value: 92.28%). The assay is classed as functional. The settings on record: A549, 24 h, read-out: Activity.
Assay [26] concerns Calf thymus DNA. Description: Binding affinity to calf thymus DNA assessed as hypochromicity at 233 nm at 40 uM after 5 mins by electronic absorption analysis. The format is nucleic-acid assay. The conditions noted are these: Bos taurus.
Assay [27] deals with A549. Description: Induction of cell cycle arrest in human A549 cells assessed as accumulation at G0/G1 phase of cell cycle at 25 uM after 24 hrs by propidium iodide staining based flow cytometry (reference value: 73.79%). The format is functional.
In assay [28] the test system is A549. Description: Induction of cell cycle arrest in human A549 cells assessed as accumulation at G2/M phase of cell cycle at 25 uM after 24 hrs by propidium iodide staining based flow cytometry (reference value: 14.73%). The assay is classed as functional.
The test system of assay [29] is A549. The experiment in a line: Induction of apoptosis in human A549 cells assessed as necrotic cells at 50 uM after 24 hrs by flow cytometry (reference value: 0.04%). The format is functional.
Assay [30] concerns A549. The experiment in a line: Induction of apoptosis in human A549 cells after 24 hrs by flow cytometry. The assay is classed as functional, cell-based.
Assay [31] concerns A549. The experiment in a line: Induction of cell cycle arrest in human A549 cells assessed as accumulation at S phase of cell cycle at 25 uM after 24 hrs by propidium iodide staining based flow cytometry (reference value: 9.8%). The assay is classed as functional.
Assay [32] relates to A549. The experiment in a line: Induction of apoptosis in human A549 cells assessed as viable cells at 50 uM after 24 hrs by flow cytometry (reference value: 92.28%). The assay is classed as functional. The conditions noted are these: A549, 24 h, read-out: Activity.
The species named for assay [33] is Bos taurus. The experiment in a line: Intrinsic binding affinity to calf thymus DNA at 233 nm after 5 mins by electronic absorption analysis.
The test system of assay [34] is Calf thymus DNA. Description: Binding affinity to calf thymus DNA assessed as luminescence intensity at compound to DNA ratio of 4:1 by job plot analysis. The format is nucleic-acid assay. The conditions noted are these: Bos taurus.
Assay [35] relates to A549. The experiment in a line: Induction of apoptosis in human A549 cells assessed as apoptotic cells at 50 uM after 24 hrs by flow cytometry (reference value: 0%). The assay is classed as functional.

3 molecules from ChEMBL document CHEMBL3259618, “Synthesis, molecular structure, DNA-binding, cytotoxicity, apoptosis and antioxidant activity of compounds containing aryloxazole” (Eur J Med Chem, 2014) can be followed below.

For orientation: inhibition means the percentage by which the read-out fell short of the control. What is called IC50 is the concentration that gives 50% inhibition.

The structures appear in SMILES notation. Activity calls are given as the source filed them. The rule behind the calls is not given here.

For the molecule `CC(=O)OCc1nc2cc(-c3c(OC(C)=O)ccc4ccccc34)c3ccccc3c2o1`, the inhibition is 75.7% in assay [1]; 86.4% in assay [4]; 89% in assay [5]; “Dose-dependent effect” in assay [6]; 50.4% in [7]; 32.5% in [10]. In addition, the results for the inhibition (in assay [11]; with Calf thymus DNA [16]; in assay [18]) were 18.9%, 60.4% and 81.2%, respectively. For the same molecule, the outcome in the assay with Escherichia coli [2], with Calf thymus DNA [3] and in the assay on Escherichia coli [13] was Active. For the same molecule, in the assay on Calf thymus DNA [8], the Flu intensity came out at 0.54 a.u. Also, the half-maximal inhibitory concentration (IC50) (in assay [9]; in assay [12]; in the assay with A549 [14]; in assay [19]) was greater than 100 µM in each case. The Activity in the assay on Calf thymus DNA [15] worked out at 29%. This molecule registered a Kb in the assay listed under Bos taurus [17] of 2.64 ×10³ /M.
Consider `OCc1nc2cc(-c3c(O)ccc4ccccc34)c3ccccc3c2o1`, for which the inhibition is 23.9% in [1]; 87.9% in assay [4]; 88.2% in assay [5]; “Dose-dependent effect” in [6]; 79.6% in the assay on Calf thymus DNA [20]; 12.3% in [7]. Moreover, the inhibition in assay [10] was determined as 9.24%; in [11] it was 4.04%; in assay [18], 26.9%. Moreover, the outcome in the assay with Escherichia coli [2], in the assay with Calf thymus DNA [3] and in the assay with Escherichia coli [13] was Active. Besides, the IC50 (in [9]; in [12]; in the assay on A549 [14]; in assay [19]) was greater than 100 µM in each case. Moreover, the Activity in the assay with Calf thymus DNA [15] is 33.4%. Moreover, in the assay filed under Bos taurus [17], the Kb turned out to be 5.31 ×10³ /M. The Flu intensity with Calf thymus DNA [21] was found to be 0.32 a.u.
For `OCc1nc2cc(-c3c(O)ccc4cc(Br)ccc34)c3cc(Br)ccc3c2o1`, the Activity in the assay with A549 [22] was found to be 3.57%; in the assay with A549 [23], 2.87%; with Calf thymus DNA [24] it was 5.76%; with Calf thymus DNA [26], 34.6%; in the assay on A549 [27], 71.9%; in the assay on A549 [28], 15.5%. The Activity was 3.18% in the assay with A549 [29], “Dose-dependent effect” with A549 [30], 11.16% in the assay on A549 [31] and 4.09% with A549 [35]. The inhibition was 35.9% in [1]; 80.9% in [4]; 86.7% in assay [5]; “Dose-dependent effect” in [6]; 28.3% in assay [7]; 23.5% in assay [10]. Besides, the values for the inhibition in assay [11] and in assay [18] were 15.2% and 52.8%, respectively. The outcome with Escherichia coli [2], in the assay with Calf thymus DNA [3] and in the assay on Escherichia coli [13] was Active. In the assay on A549 [25], the viability at 25 µM was determined as 83.5%. The IC50 in assay [9] was greater than 100 µM; in assay [12], 56.4 µM; in the assay with A549 [14], 59.8 µM; in assay [19], greater than 100 µM. Also, the viability at 50 µM in the assay on A549 [32] was 80%. In the assay listed under Bos taurus [33], the Kb is 4.44 ×10³ /M. Further, the Flu intensity in the assay on Calf thymus DNA [34] stood at 0.8 a.u.
